Measurements taken from ChEMBL document CHEMBL3872259, “Synthesis, characterization, and in vitro SAR evaluation of N,N'-bis(arylmethyl)-C2-alkyl substituted imidazolium salts” (Bioorg Med Chem Lett, 2017).
One block for each compound: values may come before it.

How the values were obtained:
[1] = Antiproliferative activity against human HOP62 cells assessed as cell growth at 10 uM measured after 48 hrs by sulforhodamine B assay relative to control; format: functional; conditions: HOP-62, 48 h, read-out: Activity
[2] = Antiproliferative activity against human EKVX cells assessed as cell growth at 10 uM measured after 48 hrs by sulforhodamine B assay relative to control; format: functional; conditions: read-out: Activity
[3] = Antiproliferative activity against human A549/ATCC cells assessed as cell growth at 10 uM measured after 48 hrs by sulforhodamine B assay relative to control; format: functional; conditions: A549, 48 h, read-out: Activity
[4] = Antiproliferative activity against human NCI-H460 cells assessed as reduction in cell viability measured after 72 hrs by MTT assay; format: functional, cell-based; conditions: NCI-H460, 72 h; for CC50: read-out: LC50 (the source's name)
[5] = Antiproliferative activity against human NCI-H1975 cells assessed as reduction in cell viability measured after 72 hrs by MTT assay; format: functional, cell-based; conditions: NCI-H1975, 72 h
[6] = Antiproliferative activity against human HCC827 cells assessed as reduction in cell viability measured after 72 hrs by MTT assay; format: functional, cell-based; conditions: HCC827, 72 h
[7] = Antiproliferative activity against human A549 cells assessed as reduction in cell viability measured after 72 hrs by MTT assay; format: functional, cell-based; conditions: A549, 72 h
[8] = Antiproliferative activity against human HOP92 cells assessed as cell growth at 10 uM measured after 48 hrs by sulforhodamine B assay relative to control; format: functional; conditions: HOP-92, 48 h, read-out: Activity
[9] = Antiproliferative activity against human NCI-H226 cells assessed as cell growth at 10 uM measured after 48 hrs by sulforhodamine B assay relative to control; format: functional; conditions: NCI-H226, 48 h, read-out: Activity
[10] = Antiproliferative activity against human NCI-H23 cells assessed as cell growth at 10 uM measured after 48 hrs by sulforhodamine B assay relative to control; format: functional; conditions: NCI-H23, 48 h, read-out: Activity
[11] = Antiproliferative activity against human NCI-H322M cells assessed as cell growth at 10 uM measured after 48 hrs by sulforhodamine B assay relative to control; format: functional; conditions: read-out: Activity
[12] = Antiproliferative activity against human NCI-H460 cells assessed as cell growth at 10 uM measured after 48 hrs by sulforhodamine B assay relative to control; format: functional; conditions: NCI-H460, 48 h, read-out: Activity
[13] = Antiproliferative activity against human NCI-H522 cells assessed as cell growth at 10 uM measured after 48 hrs by sulforhodamine B assay relative to control; format: functional; conditions: NCI-H522, 48 h, read-out: Activity
[14] = Growth inhibition of human EKVX cells measured after 48 hrs by sulforhodamine B assay; format: functional; conditions: for CC50: read-out: LC50 (the source's name)
[15] = Growth inhibition of human HOP62 cells measured after 48 hrs by sulforhodamine B assay; format: functional; conditions: HOP-62, 48 h; for CC50: read-out: LC50 (the source's name)
[16] = Growth inhibition of human HOP92 cells measured after 48 hrs by sulforhodamine B assay; format: functional; conditions: HOP-92, 48 h; for CC50: read-out: LC50 (the source's name)
[17] = Growth inhibition of human NCI-H226 cells measured after 48 hrs by sulforhodamine B assay; format: functional; conditions: NCI-H226, 48 h; for CC50: read-out: LC50 (the source's name)
[18] = Growth inhibition of human NCI-H23 cells measured after 48 hrs by sulforhodamine B assay; format: functional; conditions: NCI-H23, 48 h; for CC50: read-out: LC50 (the source's name)
[19] = Growth inhibition of human NCI-H322M cells measured after 48 hrs by sulforhodamine B assay; format: functional; conditions: for CC50: read-out: LC50 (the source's name)
[20] = Growth inhibition of human NCI-H522 cells measured after 48 hrs by sulforhodamine B assay; format: functional; conditions: NCI-H522, 48 h
[21] = Aqueous solubility of the compound; format: physicochemical; conditions: buffer

SMILES: c1ccc2cc(Cn3cc[n+](Cc4ccc5ccccc5c4)c3)ccc2c1
- growth at 10 µM [1]: 42.1%
- growth at 10 µM [2]: 51.6%
- growth at 10 µM [3]: 67.6%
- GI50 [4]: 1.27 µM
- IC50 [4]: 4 µM
- TGI [4]: 10.4 µM
- CC50 [4]: 42 µM
- IC50 [5]: 6 µM
- IC50 [6]: 9 µM
- GI50 [7]: 7.97 µM
- LC50 [7]: 55.3 µM
- TGI [7]: 22.9 µM
- growth at 10 µM [8]: -13.3%
- growth at 10 µM [9]: 52.1%
- growth at 10 µM [10]: 41.6%
- growth at 10 µM [11]: 62.8%
- growth at 10 µM [12]: 39.6%
- growth at 10 µM [13]: -11.7%
- GI50 [14]: 2.51 µM
- TGI [14]: 15.5 µM
- CC50 [14]: 4.75 µM
- GI50 [15]: 3.26 µM
- TGI [15]: 17 µM
- CC50 [15]: 45.9 µM
- GI50 [16]: 0.16 µM
- TGI [16]: 1.39 µM
- CC50 [16]: 15.2 µM
- GI50 [17]: 1.72 µM
- TGI [17]: 14.3 µM
- CC50 [17]: 71.9 µM
- GI50 [18]: 0.901 µM
- TGI [18]: 10.1 µM
- CC50 [18]: 39.4 µM
- GI50 [19]: 8.4 µM
- TGI [19]: 21.3 µM
- CC50 [19]: 47.3 µM
- GI50 [20]: 0.393 µM
- LC50 (50% lethal concentration) [20]: 26.8 µM
- TGI [20]: 3.11 µM

SMILES: [Br-].c1ccc(-c2n(Cc3ccc4ccccc4c3)cc[n+]2Cc2ccc3ccccc3c2)cc1
- growth at 10 µM [1]: -44.8%
- growth at 10 µM [2]: 3.5%
- growth at 10 µM [3]: 12.5%
- GI50 [4]: 1.37 µM
- IC50 [4]: 3 µM
- TGI [4]: 2.87 µM
- IC50 [5]: 2 µM
- IC50 [6]: 2 µM
- GI50 [7]: 1.78 µM
- IC50 [7]: 4 µM
- TGI [7]: 3.52 µM
- solubility [21]: < 0.5 mM
- growth at 10 µM [8]: -69.7%
- growth at 10 µM [9]: -9.03%
- growth at 10 µM [10]: -38.7%
- growth at 10 µM [11]: 8.84%
- growth at 10 µM [12]: -78.4%
- GI50 [14]: 1.58 µM
- TGI [14]: 3.43 µM
- GI50 [15]: 1.46 µM
- TGI [15]: 3.23 µM
- GI50 [16]: 0.602 µM
- TGI [16]: 2.28 µM
- GI50 [17]: 1.26 µM
- TGI [17]: 2.97 µM
- GI50 [18]: 0.775 µM
- TGI [18]: 2.35 µM
- CC50 [18]: 6.14 µM
- GI50 [19]: 1.42 µM
- TGI [19]: 2.82 µM
- CC50 [19]: 5.61 µM
- GI50 [20]: 1.07 µM
- TGI [20]: 2.58 µM

SMILES: CCc1n(Cc2ccc3ccccc3n2)cc[n+]1Cc1ccc2ccccc2c1.[Br-]
- growth at 10 µM [1]: 1.85%
- growth at 10 µM [2]: 15.9%
- growth at 10 µM [3]: 37.3%
- GI50 [4]: 0.456 µM
- IC50 [4]: 2 µM
- TGI [4]: 10.8 µM
- CC50 [4]: 49.5 µM
- IC50 [5]: < 1 µM
- IC50 [6]: 5 µM
- GI50 [7]: 0.997 µM
- IC50 [7]: 3 µM
- LC50 [7]: 46.1 µM
- TGI [7]: 14.1 µM
- solubility [21]: 5 mM
- growth at 10 µM [8]: -20.1%
- growth at 10 µM [9]: 19.6%
- growth at 10 µM [10]: -4.2%
- growth at 10 µM [11]: 34.8%
- growth at 10 µM [12]: 11.1%
- growth at 10 µM [13]: -27.4%
- GI50 [14]: 0.442 µM
- TGI [14]: 7.34 µM
- CC50 [14]: 38.7 µM
- GI50 [15]: 1.4 µM
- TGI [15]: 7.02 µM
- CC50 [15]: 32.1 µM
- GI50 [16]: 0.184 µM
- TGI [16]: 0.671 µM
- CC50 [16]: 7.04 µM
- GI50 [17]: 1.06 µM
- TGI [17]: 4.87 µM
- CC50 [17]: 39.4 µM
- GI50 [18]: 0.311 µM
- TGI [18]: 3.23 µM
- CC50 [18]: 37 µM
- GI50 [19]: 2.86 µM
- TGI [19]: 13.8 µM
- CC50 [19]: 38.1 µM
- GI50 [20]: 0.275 µM
- LC50 (50% lethal concentration) [20]: 13.3 µM
- TGI [20]: 0.986 µM

- solubility [21]: > 10 mM
SMILES: CCCCc1n(Cc2ccc3ccccc3n2)cc[n+]1Cc1ccc2ccccc2c1.[Cl-]
- IC50 [4]: 3 µM
- IC50 [5]: 2 µM
- IC50 [6]: 6 µM
- IC50 [7]: 3 µM

SMILES: Cc1n(Cc2ccc3ccccc3n2)cc[n+]1Cc1ccc2ccccc2n1.[Cl-]
- growth at 10 µM [1]: 90.5%
- growth at 10 µM [2]: 80.7%
- growth at 10 µM [3]: 88.6%
- IC50 [4]: 8 µM
- IC50 [5]: 2 µM
- IC50 [6]: 13 µM
- IC50 [7]: 15 µM
- solubility [21]: > 80 mM
- growth at 10 µM [8]: 74.5%
- growth at 10 µM [9]: 88.1%
- growth at 10 µM [10]: 69.8%
- growth at 10 µM [11]: 103%
- growth at 10 µM [12]: 95%
- growth at 10 µM [13]: 35.9%
